Measured values published in ChEMBL document CHEMBL2016569, “Pyronepolyene C-glucosides with NF-κB inhibitory and anti-influenza A viral (H1N1) activities from the sponge-associated fungus Epicoccum sp. JJY40” (Bioorg Med Chem Lett, 2012).

Experiments:
[1] = Inhibition of LPS-induced NFkappaB expression in mouse RAW264.7 cells pretreated for 4 hrs before LPS challenge measured after 24 hrs by luciferase reporter gene assay relative to control; type: cell-based
Influenza A virus = assay: Antiviral activity against Influenza A virus (A/Puerto Rico/8/34(H1N1)) infected in MDCK cells assessed as inhibition of virus induced cytopathicity after 48 hrs; type: functional, organism-based; settings: A/Puerto Rico/8/1934(H1N1)
RAW264.7 = assay: Inhibition of LPS-induced NFkappaB expression in mouse RAW264.7 cells at 0.1 uM pretreated for 4 hrs before LPS challenge measured after 24 hrs by luciferase reporter gene assay relative to control; type: cell-based

SMILES	IC50 [1] [µM]	IC50 (Influenza A virus) [µM]	inhibition (RAW264.7) [%]
CCC(C)CC(C)/C=C(/C=C(C)/C=C/C=C/C=C/C=C/C=C/c1cc(O)c([C@@H]2O[C@H](CO)[C@H](O)[C@H](O)[C@H]2O)c(=O)o1)C(=O)O (stereo partly specified)	50	101	–
S=C(S)N1CCCC1	–	–	85
CCC(C)CC(C)/C=C(/C=C(C)\C=C\C=C\C=C\C=C\C=C\c1cc(O)c([C@@H]2O[C@H](CO)[C@H](O)[C@H](O)[C@H]2O)c(=O)o1)C(=O)O (stereo partly specified)	40	91.5	–
NC(=O)c1ncn([C@@H]2O[C@H](CO)[C@@H](O)[C@H]2O)n1 [RIBAVIRIN]	–	115	–
